In patent US20150087037A1, “FERMENTATION PROCESS” (LanzaTech New Zealand Limited, priority 2013, published 2015):

Assays:
LZ1561 = test: Differential gene expression analysis before and after 2-HIBA addition (Example 6); type: cell-based, Clostridium autoethanogenum
Excerpt: In order to understand the impact of 2-HIBA on the metabolism of LZ1561 samples were taken for gene expression analysis. A reactor was started up as a batch and after 1 day was turned continuous at a D=1.4 day^−1. Gas flow and agitation were adjusted in order to minimise acetate and maximise ethanol and 2,3-BDO production. By day 7 the Ethanol:2,3-BDO ratio was less than 5:1 and the gas had reached target CO uptake of between 5-6 mol/L/day. On day 9.6 a sample was taken for gene expression analysis representing stable data without 2-HIBA. […] The results for this analysis indicated very clearly that 2-HIBA interacts with the Branch Chain Amino Acid biosynthesis pathway (BCAA). From the results a mode of action of 2-HIBA was proposed and this is illustrated and described in FIG. 11.

[1] = test system: Clostridium autoethanogenum; test: Fermentation of gaseous substrate comprising CO with 2-HIBA: general findings and carbon balance; type: cell-based
Excerpt: Accordingly, the inventors are the first to devise a process for producing high concentrations of 2,3-butanediol through the microbial fermentation of a gaseous substrate comprising CO. In a first stage, a gaseous substrate comprising CO is fed to a bioreactor containing a culture of one or more microorganisms suspending in liquid nutrient media. The gaseous substrate is anaerobically fermented to produce one or more alcohols and/or one or more acids or mixtures thereof. Compounds are provided to the fermentation to alter the metabolite profile of the fermentation.
Carbon balance measurements were performed to confirm the shift to increased 2,3-butanediol production after addition of 2-HIBA.
As the 2-HIBA is not consumed by the fermentation, it is possible to recover 2-HIBA exiting the bioreactor and pass it back to the bioreactor to improve the efficiency of the fermentation.

[2] = test system: C. autoethanogenum DSM23693; test: Single reactor fermentation optimised for 2,3-BDO production, single 2-HIBA addition (Example 1); type: cell-based, Clostridium autoethanogenum
Method: (§1) Fermentations with C. autoethanogenum DSM23693 were carried out in 1.5 L bioreactors at 37° C. The media was prepared according to Table 1. To achieve anaerobicity the reactor vessel was sparged with nitrogen. Prior to inoculation, the gas was switched to either steel mill gas containing H2 (3%), N2 (30%), CO (47%) and CO2 (20%) or pure gases (50% CO, 18-40% CO2, with the balance N2). The gas flow was initially set at 67 ml/min/L, increasing to 200 ml/min during mid-exponential phase, while the agitation was increased from 200 rpm to 800. Na2S was dosed into the bioreactor at 0.25 ml/hr. Once the OD600 reached 1.5, the bioreactor was switched to a continuous mode at a dilution rate of 2.0-1.6 d-l and a bacterial dilution rate of 0.9-0.6 d-l. During continuous mode gas and agitation were adjusted to 900-950 rpm and 800-900 ml/min. Na2S was increased to 1.0 ml/hr.
(§2) Liquid culture samples were taken at differing intervals over the duration of the fermentation. These samples were used to establish the optical density at 600 nm (spectrophotometer) and the level of substrates and products (high performance liquid chromatography—HPLC). HPLC was routinely used to quantify the level of acetate, ethanol and 2,3-butanediol. The input and output gas compositions were analysed using a gas chromatographer (GC), allowing measurement of CO and H2 consumption and CO2 production by the culture.
The impacts of 2-HIBA were investigated on a single reactor system which had been optimised for 2,3-BDO production. This was done to ascertain the impact that this chemical would have on a high performance system and obtain information on suitable concentrations that would not interfere with overall fermentation stability.
The 2,3-BDO concentration increased from 6 g/L to 12 g/L dropping the ratio from 4:1 to as low as 1.4:1. […] The concentration of 2-HIBA was monitored in the reactor liquid outflow. […] The 2-HIBA washes out of the fermenter according to the bacterial dilution rate.

[3] = test system: C. autoethanogenum DSM23693; test: Fermentation started in the presence of 2-HIBA, impact on growth (Example 5); type: cell-based, Clostridium autoethanogenum
Method: as §1, §2
To see if the 2-HIBA impacts negatively on growth a fermentation was started in the presence of 0.05 g/L (0.48 mM) 2-HIBA. During growth gas and agitation were increased so that by day 5.0 the agitation had reached a maximum of 950 rpm and the gas flow 800 ml/min. At this time the dilution rate was 1.8 day^−1 and the bacterial dilution rate 0.85 day^−1.

[4] = test system: branch chain amino acid production; test: Monitoring BCAA production during 2-HIBA addition (Example 7); type: cell-based, Clostridium autoethanogenum; conditions: FIG. 11
Excerpt: In order to generate further evidence that 2-HiBA interferes with branch chain amino acid production, the concentrations of these amino acids were monitored directly before and after the addition of 2-HIBA. FIG. 11 illustrates the results; immediately after the addition of 2-HIBA the concentrations of valine, leucine and isoleucine drop as well as biomass.

[5] = 0 mM vs 4.8 mM 2-HIBA addition, down-regulated
[6] = 0 mM vs 4.8 mM 2-HIBA addition, up-regulated
[7] = over time after 2-HIBA addition

SMILES: CC(C)(O)C(=O)O [2-HIBA, 2-hydroxyisobutyric acid]
- log2 fold_change, or1907 Indole-3-glycerol phosphate synthase CDS (LZ1561; [5]): −3.042
- log2 fold_change, or2161 Alcohol dehydrogenase CDS (LZ1561; [5]): −3.476
- log2 fold_change, or2739 Glutamate synthase (NADPH) CDS (LZ1561; [5]): −3.498
- log2 fold_change, or2997 Glycerol dehydrogenase CDS (LZ1561; [5]): −4.924
- log2 fold_change, or3075 Glucarate dehydratase CDS (LZ1561; [5]): −4.084
- log2 fold_change, or3076 hypothetical protein CDS (LZ1561; [5]): −3.469
- log2 fold_change, or3079 Methylglyoxal reductase (NADPH-dependent) CDS (LZ1561; [5]): −4.02
- log2 fold_change, or3080 transcriptional regulator, CdaR CDS (LZ1561; [5]): −3.947
- log2 fold_change, or1190 2-isopropylmalate synthase CDS (LZ1561; [6]): 3.63
- log2 fold_change, or1191 3-isopropylmalate dehydratase large subunit CDS (LZ1561; [6]): 3.55
- log2 fold_change, or1193 3-isopropylmalate dehydrogenase CDS (LZ1561; [6]): 3.289
- log2 fold_change, or2387 Ketol-acid reductoisomerase CDS (LZ1561; [6]): 3.202
- log2 fold_change, or2388 Dihydroxy-acid dehydratase CDS (LZ1561; [6]): 2.901
- log2 fold_change, or2389 acetolactate synthase, large subunit, biosynthetic type CDS (LZ1561; [6]): 3.255
- log2 fold_change, or2390 acetolactate synthase, small subunit CDS (LZ1561; [6]): 3.237
- log2 fold_change, or2461 General substrate transporter CDS (LZ1561; [6]): 2.867
- response in metabolites (LZ1561; 0.5 g/L (4.8 mM) 2-HIBA added on day 10.78): decreasing acetate, ethanol and biomass with increasing 2,3-BDO
- Biomass (LZ1561; Day 12.8-14.0, stable 0.5 g/L HIBA addition, before 4.7): 3.45 g/L
- CO uptake (LZ1561; Day 12.8-14.0, stable 0.5 g/L HIBA addition, before 5.7): 5.1 mol/L/day
- 2,3-BDO concentration ([1]; 2-HIBA at 0.01 g/L-2.0 g/L (0.096 to 19.2 mM)): significantly increases
- ethanol:2,3-BDO ratio ([1]; addition of 2-HIBA): significantly improves
- carbon balance ([1]; before and after addition of 2-HIBA, FIG. 14): clear increase in 2,3-butanediol production, accompanied by a decrease in production of ethanol, acetate and biomass
- overall fermentation stability ([1]; continuous addition, 0.01 g/L/day-2.0 g/L/day (0.096 to 19.2 mM/day)): without affecting overall fermentation stability
- impact on gas uptake ([2]; 0.5 g/L (4.8 mM) 2-HIBA): not to have a detrimental impact on gas uptake
- metabolite profile of the fermentation ([2]; 0.5 g/L (4.8 mM) 2-HIBA, FIG. 1): increasing the production of 2,3-butanediol whilst decreasing the production of ethanol, acetate and biomass
- 2,3-BDO concentration ([2]; after 0.5 g/L (4.8 mM) 2-HIBA added on day 7.95, increased from 6 g/L): 12 g/L
- overall washout rate of 2-HIBA ([2]; matched the bacterial dilution rate): 0.7 day⁻¹
- initial washout rate of 2-HIBA ([2]; similar to the dilution rate): ~1.8 day⁻¹
- average ethanol concentration ([3]; 0.05 g/L (0.48 mM) 2-HIBA): 17 g/L
- impact on the growth of the fermentation ([3]; 0.05 g/L (0.48 mM) 2-HIBA in the media from start): no impact on the growth
- 2,3-butanediol concentration ([3]; 0.05 g/L (0.48 mM) 2-HIBA, average): 15.5 g/L
- concentrations of valine, leucine and isoleucine and biomass ([4]; immediately after the addition of 2-HIBA (100 mg, 0.96 mM)): drop
- concentration of isoleucine [4, 7]: appears to recover
- concentration of leucine and valine [4, 7]: remaining lower than the value before 2-HIBA addition
